According to US4036979A, “Compositions containing 4,5,6,7-tetrahydrobenz[b]thien-4-yl-ureas or derivatives and methods of enhancing growth rate” (American Cyanamid Company, priority 1976, dated 1977):
Where “and” joins values, the source holds several entries; their conditions need not be identical. Equal entries are not always repeated.

Experiments:
[1] = Growth enhancement and feed efficiency in sheep given an implant containing test compound (six weeks); format: in vivo, sheep (Wether lambs); settings: for Average 6-Week Feed/Gain per Pen, AV. / Average 6-Week Weight Gain (kg.)/Lamb, AV.: average of 6 replications; for Average 6-Week Feed/Gain per Pen / Average 6-Week Weight Gain (kg.)/Lamb: replications 1 to 6
Text: To determine the effect of a 4,5,6,7-tetrahydrobenzo[b]thien-4-ylurea compound on sheep, Wether lambs are randomly allotted to pens in groups of six. The sheep are weighed and permitted food and water ad libitum. The feed is weighed daily, and uneaten feed from the previous day is collected and weighed. Test lambs receive the same unmedicated diet as control animals, but test animals receive one or more subcutaneous implants containing test compound at the base of the ear. The formulation of the implant used is given below. At the end of the six-week treatment period, the lambs are again weighed, and total feed consumed is calculated.
In these tests, six replicates of six lambs each per treatment are used and each animal receives from about 11 mg. to 105 mg. of test compound.

[2] = Growth enhancement and feed efficiency improvement in sheep fed levels of test compounds (six weeks); format: in vivo, sheep (Wether lambs); settings: for Average Daily Gain (kg)/Lamb, av. / Six-Week Feed/Gain, av.: average of 5 replications; for Average Daily Gain (kg)/Lamb / Six-Week Feed/Gain: replications 1 to 5
Text: To determine the effect of feeding experimental compounds on sheep performance, Wether lambs are randomly allotted to pens in groups of six. The sheep are weighed and permitted feed and water ad libitum. The feed is weighed daily, and uneaten feed from the previous day is collected and weighed. Test lambs receive the same diet as control animals but with the addition of experimental compound at a concentration of either 15 or 60 ppm. At the end of the six-week treatment period, the lambs are again weighed, and total feed is calculated.
In these tests, five replicates of six lambs each per treatment are used.

[3] = Mouse Growth Regulant Tests (12-day weight gain over controls, compound in diet); format: in vivo, CFI female mice; settings: Mus musculus, feed or water, 288 h, Table VI
[4] = Chick tests: growth promotion and feed/gain, 13 days, compound in basal diet; format: in vivo, chicks; settings: for Average 13-day Chick/Gain (g), AV. / Average 13-day Feed/Gain, AV.: average of 4 experiments; for Average 13-day Chick/Gain / Average 13-day Feed/Gain: experiments 1928, 1929, 1930, 1931; for Percent Improvement (13-day chick gain) / Percent Improvement (13-day feed/gain): vs control
Protocol: The following tests were conducted to evaluate the ability of 4,5,6,7-tetrahydrobenzo[b]thien-4-ylurea to promote growth in chicks.
In these tests day-old chicks are placed in heated cages and given feed and water ad libitum. In each test there are 5 male and 5 female chicks per cage and three cages per treatment are used. Treatments consist of a basal diet plus 1,3 or 9 ppm. of test compound. The chicks are weighed at the beginning and end of the experiment. Feed consumption is determined for the experimental period which is 13 days beginning when the chicks are one day old.

NC(=O)NC1CCCc2sccc21 (stereo not drawn) [4,5,6,7-tetrahydrobenzo[b]thien-4-ylurea]
improvement of feed utilization over untreated controls ([1]; 11 mg. or 99 mg. implanted, six weeks): about 5%
increase in weight gain over untreated controls ([1]; 11 mg. or 99 mg. implanted, six weeks after implantation): ~10%
Average 6-Week Feed/Gain per Pen, AV. ([1]; 1 drug implant): 7.57
Average 6-Week Weight Gain (kg.)/Lamb, AV. ([1]; 1 drug implant): 8.86 kg
Average 6-Week Feed/Gain per Pen ([1]; 1 drug implant): 6.63 and 6.58 and 7.41 and 8.21 and 8.05 and 8.49
Average 6-Week Weight Gain (kg.)/Lamb ([1]; 1 drug implant): 11.25 kg and 9.32 kg and 9.20 kg and 8.63 kg and 8.05 kg and 6.68 kg
Average 6-Week Feed/Gain per Pen, AV. ([1]; 9 drug implants): 7.49
Average 6-Week Weight Gain (kg.)/Lamb, AV. ([1]; 9 drug implants): 8.69 kg
Average 6-Week Feed/Gain per Pen ([1]; 9 drug implants): 6.51 and 6.75 and 7.80 and 8.38 and 7.56 and 7.97
Average 6-Week Weight Gain (kg.)/Lamb ([1]; 9 drug implants): 10.83 kg and 9.60 kg and 8.75 kg and 7.20 kg and 8.53 kg
Average Daily Gain (kg)/Lamb, av. ([2]; 15 ppm in feed): 0.186 kg
Six-Week Feed/Gain, av. ([2]; 15 ppm in feed): 6.611
Average Daily Gain (kg)/Lamb ([2]; 15 ppm in feed): 0.190 kg and 0.187 kg and 0.186 kg and 0.174 kg and 0.195 kg
Six-Week Feed/Gain ([2]; 15 ppm in feed): 6.777 and 6.174 and 6.158 and 7.626 and 6.319
Average Daily Gain (kg)/Lamb, av. ([2]; 60 ppm in feed): 0.208 kg
Six-Week Feed/Gain, av. ([2]; 60 ppm in feed): 6.148
Average Daily Gain (kg)/Lamb ([2]; 60 ppm in feed): 0.211 kg and 0.250 kg and 0.200 kg and 0.193 kg and 0.189 kg
Six-Week Feed/Gain ([2]; 60 ppm in feed): 6.250 and 5.539 and 6.040 and 6.507 and 6.403
change in vivo at 50 ppm ([3]; 50 ppm in diet): 50.1%
change in vivo at 200 ppm ([3]; 200 ppm in diet): 134%
change in vivo at 400 ppm ([3]; 400 ppm in diet): 120%
Average 13-day Chick/Gain (g), AV. ([4]; 1 ppm): 189 g
Average 13-day Feed/Gain, AV. ([4]; 1 ppm): 1.46
Average 13-day Chick/Gain ([4]; 1 ppm): 181 g and 193 g and 182 g and 200 g
Average 13-day Feed/Gain ([4]; 1 ppm): 1.48 and 1.45 and 1.49 and 1.44
Percent Improvement (13-day chick gain) ([4]; 1 ppm): 3.3%
Percent Improvement (13-day feed/gain) ([4]; 1 ppm): 2.7%
Average 13-day Chick/Gain (g), AV. ([4]; 3 ppm): 195 g
Average 13-day Feed/Gain, AV. ([4]; 3 ppm): 1.43
Average 13-day Chick/Gain ([4]; 3 ppm): 199 g and 186 g and 197 g and 198 g
Average 13-day Feed/Gain ([4]; 3 ppm): 1.47 and 1.40 and 1.44
Percent Improvement (13-day chick gain) ([4]; 3 ppm): 6.6%
Percent Improvement (13-day feed/gain) ([4]; 3 ppm): 4.7%
Average 13-day Chick/Gain (g), AV. ([4]; 9 ppm): 193 g
Average 13-day Feed/Gain, AV. ([4]; 9 ppm): 1.44
Average 13-day Chick/Gain ([4]; 9 ppm): 190 g and 198 g and 191 g
Average 13-day Feed/Gain ([4]; 9 ppm): 1.45 and 1.46 and 1.40
Percent Improvement (13-day chick gain) ([4]; 9 ppm): 5.5%
Percent Improvement (13-day feed/gain) ([4]; 9 ppm): 4.0%
